Assay results taken from US10632106B2, “Methods of cancer treatment with 2-(1′H-Indole-3′-carbonyl)-thiazole-4-carboxylic acid methyl ester” (Ariagen, Inc., priority 2009, dated 2020).

Legend:
Format in all cases: in vivo
[1] = system: Siha (human cervical cancer) xenografts; assay: Siha xenograft growth inhibition; conditions: ITE 100-200 mg/kg i.p. once daily
Method: (§1) All the procedures related to animal handling, care, and the treatment in the study were performed following guidelines of KeyGen Biotechn Co., Ltd. (Nanjing, China), a contract research organization we hired, based on the guidance of the Association for Assessment and Accreditation of Laboratory Animal Care (AAALAC). Animals were checked for any effects of tumor growth and drug treatment on normal behavior such as mobility, food and water consumption, body weight gain/loss (bodyweights were measured every two days), eye/hair matting, and any other abnormal effect. Death and observed clinical signs were recorded. Individual animals with a tumor volume exceeding 3,000 mm^3 or animals of a group with a mean tumor volume exceeding 2,000 mm^3 were euthanized. In addition, animals showing signs of severe distress and/or pain or losing the capability of accessing adequate food or water were humanely sacrificed.
(§2) Cell lines HCT116, Siha, MFC were cultured in DMEM medium (high glucose) supplemented with 10% fetal bovine serum (FBS), SW116 and T24 in RPMI-1640 medium with 10% FBS, M14 and A375 in DMEM medium (high glucose) with 10% calf serum (CS), SGC7901 and Ketr-3 in RPMI-1640 medium with 10% CS, and CFPAC-1 in IMDM medium with 10% FBS. All of the cells were cultured, in the presence of 100 U/ml penicillin and 100 μg/ml streptomycin, at 37° C. in an atmosphere of 5% CO2 in air. […] The cells growing in an exponential phase were harvested and counted for tumor inoculation. Cell lines 5180 and U14 were maintained in ascites (peritoneal cavity fluid) of mice and were harvested and counted for tumor inoculation. […]
(§3) Tumor volume was measured every two days in two dimensions using a caliper and the volume was calculated with a formula of: V=0.5 a×b^2, where a and b are the long and short diameter (in mm) of a tumor, respectively. […] The TGD was calculated as: TGD=T−C, where T was the time (in days) required for tumors in a drug treated group to reach a predetermined mean tumor volume and C the time (in days) in the control group to reach the same volume. […]

[2] = system: A375 (human skin cancer) xenografts; assay: A375 xenograft growth inhibition; conditions: ITE 100-200 mg/kg i.p. once daily
Method: as §1, §2, §3

[3] = system: S180 (mouse soft tissue cancer/sarcoma) homografts; assay: S180 homograft (syngeneic) growth inhibition in ICR mice; conditions: ITE 200 mg/kg i.p. once daily
Method: as §1, §2, §3

[4] = system: M14 (human skin cancer) xenografts; assay: M14 xenograft growth inhibition; conditions: ITE 100-200 mg/kg i.p. once daily
Method: as §1, §2, §3

[5] = system: SGC7901 (human stomach cancer) xenografts; assay: SGC7901 xenograft growth inhibition; conditions: ITE 100-200 mg/kg i.p. once daily
Method: as §1, §2, §3

[6] = end of therapy relative to beginning

## COC(=O)c1csc(C(=O)c2c[nH]c3ccccc23)n1 [ITE, 2-(1′H-indole-3′-carbonyl)-thiazole-4-carboxylic acid methyl ester]
[1]; TGD at Vol. 1,000
  TGD: 7 days
[1]; TGI at day 24, TGI=(1−ΔT/ΔC)×100%
  TGI (%): 53%
[1]; [6]
  Weight Loss: 19%
[2]; TGD at Vol. 1,000
  TGD: 7 days
[2]; TGI at day 16, TGI=(1−ΔT/ΔC)×100%
  TGI (%): 60%
[2]; [6]
  Weight Loss: 18%
[3]; TGD at Vol. 2,000
  TGD: 1.5 days
[3]; TGI at day 8, TGI=(1−ΔT/ΔC)×100%
  TGI (%): 33%
[3]; [6]
  Weight Loss: 9%
[4]; TGD at Vol. 1,000
  TGD: 5 days
[4]; TGI at day 26, TGI=(1−ΔT/ΔC)×100%
  TGI (%): 48%
[4]; [6]
  Weight Loss: 15%
[5]; TGD at Vol. 1,000
  TGD: 4 days
[5]; TGI at day 18, TGI=(1−ΔT/ΔC)×100%
  TGI (%): 50%
[5]; [6]
  Weight Loss: 12%
